Experimental data published in ChEMBL document CHEMBL1138279, “Platelet-activating factor (PAF) receptor binding antagonists from Alpinia officinarum” (Bioorg Med Chem Lett, 2007).

Test: Displacement of [3H]PAF from rabbit PAF receptor
Set-up: species or system Oryctolagus cuniculus

| IC50 | Compound |
| --- | --- |
| 1300 nM | O=C(/C=C/C(O)Cc1ccccc1)CCc1ccccc1 (stereo not drawn) |
| 1600 nM | COC(CCc1ccccc1)CC(=O)CCc1ccccc1 (stereo not drawn) |
| 5000 nM | O=C(/C=C/CCc1ccccc1)CCc1ccccc1 |
